This test relates to HeLa cell nuclear extract proteins. The test is described as follows: ADP-ribosylation of HeLa cell nuclear extract proteins by asPARPs 1, 2 or 3. To be noted: purified recombinant asPARPs 1, 2, or 3; 250 μM analog, 15 min. The class given is biochemical, human. The method, then: HeLa cell nuclear extract preparation. HeLa Nuclear Extract was prepared essentially as described in Dignam et al., 1983. 5 L of HeLa S3 cells were grown in Spinner flasks to a density of 0.5×10^6 cells per milliliter and harvested by centrifugation at 4° C. for 10 minutes at 2000 RPM. Cell pellets were washed in 5 pelleted cell volumes of ice cold PBS and centrifuged 10 minutes at 2000 RPM. Cells were resuspended in 5 pelleted cell volumes of Buffer A (10 mM HEPES, pH 7.9, 1.5 mM MgCl2, 10 mM KCl, 0.5 mM DTT, 1 mM PMSF, 4 mM Benzamidine, 1 μM Aprotinin, 100 μM Leupeptin, 1 μM Pepstatin A) and incubated 10 minutes on ice to facilitate cell swelling and centrifuged at 4° C. for 10 minutes at 2000 RPM. Cells were resuspended in 2 pelleted cell volumes of Buffer A and dounced with a light pestle dounce homogenizer (Wheaton) to release nuclei. The nuclei were then pelleted by centrifugation at 4° C. for 10 minutes at 2000 RPM and the supernatant decanted. The nuclei were subsequently centrifuged at 4° C. for 20 minutes at 25,000 RCF to obtain a crude nuclear fraction. […]

This note sets out measurements from patent US9926340B2, “NAD analogs and methods of using said NAD analogs in determining ribosylation of proteins with PARP mutants” (The Board of Regents of the University of Texas System, priority 2015, dated 2018).

Take `C#CCCSc1nc2c(N)ncnc2n1[C@@H]1O[C@H](COP(=O)(O)OP(=O)(O)OC[C@H]2O[C@@H]([n+]3cccc(C(N)=O)c3)C(O)C2O)[C@H](O)C1O` (stereo partly shown) [8-Bu(3-yne)T-NAD^+]: the “labeling of HeLa cell nuclear extract proteins” value is reported as “PARP-specific labeling of extract proteins”.
